This is an account of results in US20240270715A1, “INHIBITORS OF TRANSGLUTAMINASES” (ZEDIRA GMBH, priority 2021, published 2024).

The target of data set [1] is T1, recombinant human transglutaminase 2 (Homo sapiens, UniProt P21980).
T1 sequence (P21980 1-687): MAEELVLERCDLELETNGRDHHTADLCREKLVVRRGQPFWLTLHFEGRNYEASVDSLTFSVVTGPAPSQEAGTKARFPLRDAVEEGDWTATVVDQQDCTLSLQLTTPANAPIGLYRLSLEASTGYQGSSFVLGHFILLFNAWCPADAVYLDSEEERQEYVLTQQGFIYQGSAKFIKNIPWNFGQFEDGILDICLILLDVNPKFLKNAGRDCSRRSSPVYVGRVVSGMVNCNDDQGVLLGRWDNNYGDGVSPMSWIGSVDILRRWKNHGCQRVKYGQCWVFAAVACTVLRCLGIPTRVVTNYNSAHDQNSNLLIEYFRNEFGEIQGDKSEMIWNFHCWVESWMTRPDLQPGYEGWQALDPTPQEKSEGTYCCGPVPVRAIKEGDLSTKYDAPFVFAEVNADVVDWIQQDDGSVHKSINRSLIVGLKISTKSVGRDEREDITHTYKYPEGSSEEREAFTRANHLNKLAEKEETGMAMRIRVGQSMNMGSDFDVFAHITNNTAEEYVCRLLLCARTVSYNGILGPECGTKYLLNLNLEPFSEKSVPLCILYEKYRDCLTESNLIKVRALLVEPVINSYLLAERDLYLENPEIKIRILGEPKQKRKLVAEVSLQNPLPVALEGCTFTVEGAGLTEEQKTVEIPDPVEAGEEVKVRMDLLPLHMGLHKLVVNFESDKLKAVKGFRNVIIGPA
The data set can be described thus: Transglutaminase assay: incorporation of dansylcadaverine into dimethylcasein (DCC-assay). The following applies: recombinant human TG2 10 nM, dansylcadaverine/dimethylcasein; read-out: IC50 TG2. The format is biochemical. The gist of the method:
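Recombinant human TG2 (10 nM final) incorporates dansylcadaverine (16.7 μM) into N,N-dimethylcasein (4 μM) in Tris-HCl buffer, pH 8.0, with 10 mM CaCl2 and 10 mM glutathione. Fluorescence (λex 330, λem 500 nm) followed 30 min. The slope between 20–30 min gives activity versus DMSO control, and IC50 comes from the concentration–activity plot.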

Data set [2] in a line: Log D by shake flask method (octanol / PBS pH 7.4, HPLC). As to conditions: octanol / PBS pH 7.4, shake flask; read-out: logD. It is filed as physicochemical. The gist of the method: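 Log D is derived by HPLC measurement of how the compound distributes between octanol and pH 7.4 phosphate-buffered saline in a shake flask.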
A short description of data set [3]: Caco-2 permeability assay (CacoReady kit). The format is in vitro ADME. The following applies: human. The gist of the method:
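Caco-2 monolayer barrier, commercial ready-to-use kit, manufacturer protocol. Read-out: Papp.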

Structures are written as SMILES. pIC50: −log10 of the molar value.

Take `CCNC(=O)C(=O)CC[C@H](NC(=O)c1ccnn1C)C(=O)Nc1cccn(CC23CC4CC(CC(C4)C2)C3)c1=O` [Compound I-81, (S)-N1-(1-(1-adamantylmethyl)-2-oxo-1,2-dihydropyridin-3-yl)-N6-ethyl-2-(1-methyl-1H-pyrazole-5-carboxamido)-5-oxohexanediamide]: the pIC50 in data set [1] is 6.22 to 6.82. Also, the log distribution coefficient (logD) in data set [2] is 1 to 3. Further, in data set [3], the Papp was less than 1 ×10⁻⁶ cm/s.
Take `CCNC(=O)C(=O)CC[C@H](NC(=O)c1snnc1C1CC1)C(=O)Nc1cccn(CC23CC4CC(CC(O)(C4)C2)C3)c1=O` [Compound I-82, (S)-N1-(1-((3-hydroxy-1-adamantyl)methyl)-2-oxo-1,2-dihydropyridin-3-yl)-2-(4-cyclopropyl-1,2,3-thiadiazole-5-carboxamido)-N6-ethyl-5-oxohexanediamide]: in data set [1], the negative logarithm of the IC50 (pIC50) is 6.22 to 6.82. For the same molecule, the logD in data set [2] is less than 1. For the same molecule, the Papp in data set [3] is less than 1 ×10⁻⁶ cm/s.
`CCNC(=O)C(=O)CC[C@H](NC(=O)c1cnsn1)C(=O)Nc1cccn(CC23CC4CC(CC(Br)(C4)C2)C3)c1=O` [Compound I-83, (S)-N1-(1-((3-bromo-1-adamantyl)methyl)-2-oxo-1,2-dihydropyridin-3-yl)-N6-ethyl-5-oxo-2-(1,2,5-thiadiazole-3-carboxamido)hexanediamide]: the pIC50 in data set [1] is 6.22 to 6.82. Further, the logD in data set [2] was in the range of 3 to 5. Moreover, in data set [3], the apparent permeability coefficient (Papp) was less than 1 ×10⁻⁶ cm/s.
For the molecule `CCNC(=O)C(=O)CC[C@H](NC(=O)c1snnc1CO)C(=O)Nc1cccn(CC2C3CC4CC(C3)CC2C4)c1=O` (stereo partly drawn) [Compound I-84, (S)-N1-(1-(2-adamantylmethyl)-2-oxo-1,2-dihydropyridin-3-yl)-N6-ethyl-2-(4-(hydroxymethyl)-1,2,3-thiadiazole-5-carboxamido)-5-oxohexanediamide], the pIC50 in data set [1] is 6.22 to 6.82. Moreover, the logD in data set [2] was 1 to 3. In data set [3], the Papp is less than 1 ×10⁻⁶ cm/s.
As for `CCNC(=O)C(=O)CC[C@H](NC(=O)c1c[nH]cc1C(C)(C)C)C(=O)Nc1cccn(CCC23CC4CC(CC(C4)C2)C3)c1=O` [Compound I-85], the pIC50 in data set [1] is 5.46 to 6.22. Also, the logD in data set [2] is 3 to 5. In data set [3], this molecule yielded a Papp of 1 to 10 ×10⁻⁶ cm/s.
In the case of `CCNC(=O)C(=O)CC[C@H](NC(=O)c1cc(C#N)cn1C)C(=O)Nc1cccn(CCCC23CC4CC(CC(C4)C2)C3)c1=O` [Compound I-86], the pIC50 in data set [1] is 5.46 to 6.22. Moreover, the logD in data set [2] fell in the range of 3 to 5. Besides, the apparent permeability coefficient (Papp) in data set [3] lay within 1 to 10 ×10⁻⁶ cm/s.
`CCNC(=O)C(=O)CC[C@H](NC(=O)c1oc2ccccc2c1C)C(=O)Nc1cccn(CC(=O)NC23CC(C2)C3)c1=O` [Compound I-88, (S)-N1-(1-(2-(bicyclo[1.1.1]pentan-1-ylamino)-2-oxoethyl)-2-oxo-1,2-dihydropyridin-3-yl)-N6-ethyl-2-(3-methylbenzofuran-2-carboxamido)-5-oxohexanediamide]: in data set [1], the pIC50 is more than 6.82. In data set [2], the logD was less than 1. This molecule also yielded a Papp in data set [3] of 1 to 10 ×10⁻⁶ cm/s.
For `CCNC(=O)C(=O)CC[C@H](NC(=O)c1coc(C(C)=O)n1)C(=O)Nc1cccn(CC(=O)NC23CC(C2)C3)c1=O` [Compound I-89, (S)-2-(2-acetyloxazole-4-carboxamido)-N1-(1-(2-(bicyclo[1.1.1]pentan-1-ylamino)-2-oxoethyl)-2-oxo-1,2-dihydropyridin-3-yl)-N6-ethyl-5-oxohexanediamide] the same measures were more than 6.82, less than 1 and less than 1 ×10⁻⁶ cm/s.
For the molecule `CCNC(=O)C(=O)CC[C@H](NC(=O)c1cnc(C(C)C)o1)C(=O)Nc1cccn(CC(=O)NC23CCC(C2)C3)c1=O` [Compound I-90, (S)-N1-(1-(2-(bicyclo[2.1.1]hexan-1-ylamino)-2-oxoethyl)-2-oxo-1,2-dihydropyridin-3-yl)-N6-ethyl-2-(2-isopropyloxazole-5-carboxamido)-5-oxohexanediamide], the pIC50 in data set [1] was more than 6.82. Besides, in data set [2], the logD was less than 1. For the same molecule, in data set [3], the Papp was 1 to 10 ×10⁻⁶ cm/s.
In the case of `CCNC(=O)C(=O)CC[C@H](NC(=O)c1c(C)noc1C)C(=O)Nc1cccn(CC(=O)NC2C3CCCC2CC3)c1=O` (stereo partly drawn) [Compound I-91, (2S)-N1-(1-(2-(bicyclo[3.2.1]octan-8-ylamino)-2-oxoethyl)-2-oxo-1,2-dihydropyridin-3-yl)-2-(3,5-dimethylisoxazole-4-carboxamido)-N6-ethyl-5-oxohexanediamide], the pIC50 in data set [1] was 6.22 to 6.82. The logD in data set [2] was less than 1. This molecule came in with a Papp in data set [3] of 1 to 10 ×10⁻⁶ cm/s.
As to `CCNC(=O)C(=O)CC[C@H](NC(=O)c1cncnc1C)C(=O)Nc1cccn(CC(=O)NC2C3CC4CC2CC(C(=O)O)(C4)C3)c1=O` (stereo partly drawn) [Compound I-92, (S)-N1-ethyl-N6-(1-(2-(5-carboxy-2-aminoadamantane)-2-oxoethyl)-2-oxo-1,2-dihydropyridin-3-yl)-5-(4-methylpyrimidine-5-carboxamido)-2-oxohexanediamide], the pIC50 in data set [1] was 6.22 to 6.82. In data set [2], the logD was less than 1. The same molecule had a Papp in data set [3] of less than 1 ×10⁻⁶ cm/s.
For the molecule `CCNC(=O)C(=O)CC[C@H](NC(=O)C1CCc2ccccc2C1)C(=O)Nc1cccn(CC(=O)NC2C3CC4CC2CC(C(=O)N(C)C)(C4)C3)c1=O` (stereo partly drawn) [Compound I-93, (5S)-N1-ethyl-N6-(1-(2-(4-aminoadamantane-N,N-dimethyl-1-carboxamide)-2-oxoethyl)-2-oxo-1,2-dihydropyridin-3-yl)-2-oxo-5-(1,2,3,4-tetrahydronaphthalene-2-carboxamido)hexanediamide], the pIC50 in data set [1] was 6.22 to 6.82. Moreover, the logD in data set [2] was less than 1. In data set [3], the Papp was less than 1 ×10⁻⁶ cm/s.
For `CCNC(=O)C(=O)CC[C@H](NC(=O)[C@@H]1CN2CCN1CC2)C(=O)Nc1cccn(CC(=O)NC2C3CC4CC(C3)CC2C4)c1=O` (stereo partly drawn) [Compound I-94, (S)-2-((S)-1,4-diazabicyclo[2.2.2]octane-2-carboxamido)-N6-ethyl-N1-(1-(2-(2-adamantylamino)-2-oxoethyl)-2-oxo-1,2-dihydropyridin-3-yl)-5-oxohexanediamide], in that order: 5.46 to 6.22, 1 to 3 and less than 1 ×10⁻⁶ cm/s.
Consider `CCNC(=O)C(=O)CC[C@H](NC(=O)c1c[nH]c2ccccc12)C(=O)Nc1cccn(CC(=O)NC2C3CC4CC(C3)CC2C4)c1=O` (stereo partly drawn) [Compound I-95, (S)-N1-ethyl-5-(1H-indole-3-carboxamido)-N6-(1-(2-(2-adamantylamino)-2-oxoethyl)-2-oxo-1,2-dihydropyridin-3-yl)-2-oxohexanediamide], for which the pIC50 in data set [1] is 6.22 to 6.82. For the same molecule, the logD in data set [2] lay within 1 to 3. The molecule also registered a Papp in data set [3] of 1 to 10 ×10⁻⁶ cm/s.
Take `CCNC(=O)C(=O)CC[C@H](NC(=O)c1csc2nc(C)cn12)C(=O)Nc1cccn(CC(=O)NC2C3CC4CC(C3)CC2C4)c1=O` (stereo partly drawn) [Compound I-96, (S)-N1-ethyl-N6-(1-(2-(2-adamantylamino)-2-oxoethyl)-2-oxo-1,2-dihydropyridin-3-yl)-5-(6-methylimidazo[2,1-b]thiazole-3-carboxamido)-2-oxohexanediamide]: the pIC50 in data set [1] is 5.46 to 6.22. Besides, in data set [2], the logD is 3 to 5. Moreover, the apparent permeability coefficient (Papp) in data set [3] is less than 1 ×10⁻⁶ cm/s.
For `CCNC(=O)C(=O)CC[C@H](NC(=O)c1nc2ccccc2s1)C(=O)Nc1cccn(CC(=O)N[C@@H]2C[C@@H]3CC[C@H]2C3)c1=O` [Compound I-97, (S)-2-(benzo[d]thiazole-2-carboxamido)-N1-(1-(2-((1S,2R,4R)-bicyclo[2.2.1]heptan-2-ylamino)-2-oxoethyl)-2-oxo-1,2-dihydropyridin-3-yl)-N6-ethyl-5-oxohexanediamide] the same measures were 6.22 to 6.82, 1 to 3 and 1 to 10 ×10⁻⁶ cm/s.
For `CCNC(=O)C(=O)CC[C@H](NC(=O)c1cn2ccsc2n1)C(=O)Nc1cccn(CC(=O)N[C@@H]2C[C@@H]3CC[C@H]2C3)c1=O` [Compound I-98, (S)-N1-(1-(2-((1S,2R,4R)-bicyclo[2.2.1]heptan-2-ylamino)-2-oxoethyl)-2-oxo-1,2-dihydropyridin-3-yl)-N6-ethyl-2-(imidazo[2,1-b]thiazole-6-carboxamido)-5-oxohexanediamide] the same measures were 5.46 to 6.22, 1 to 3 and less than 1 ×10⁻⁶ cm/s.
As for `CCNC(=O)C(=O)CC[C@H](NC(=O)c1cnc2ccc(OC(F)(F)F)cc2c1O)C(=O)Nc1cccn(CC(=O)N[C@@H]2C[C@@H]3CC[C@H]2C3)c1=O` [Compound I-99, (S)-N1-(1-(2-((1S,2R,4R)-bicyclo[2.2.1]heptan-2-ylamino)-2-oxoethyl)-2-oxo-1,2-dihydropyridin-3-yl)-N6-ethyl-2-(4-hydroxy-6-(trifluoromethoxy)quinoline-3-carboxamido)-5-oxohexanediamide], the pIC50 in data set [1] was 5.46 to 6.22. The log distribution coefficient (logD) in data set [2] was 3 to 5. For the same molecule, the Papp in data set [3] was less than 1 ×10⁻⁶ cm/s.
